{
  "source": "patent US20160193240A1",
  "about": "“Ulmoside-A: Useful For Prevention Or Cure Of Metabolic Diseases” (COUNCIL OF SCIENTIFIC & INDUSTRIAL RESEARCH, priority 2013, published 2016)",
  "key": {"[1]": {"tested_on": "C2C12 myotubes", "test": "Fatty acid oxidation (14CO2 release from 14C palmitate) in C2C12 myotubes", "type": "cell-based, mouse", "conditions": "10 nM", "description": "B. ULMA enhances fatty acid oxidation in C2C12 myotubes. C2C12 myotubes plated in 12 well plates were treated with vehicle (0.1% vol/vol DMSO) or 10 nM ULMA in DMSO (final concentration of DMSO in all wells 0.1% for 2 h, 24 h or 48 h. Data represent mean±SEM of three independent experiments performed in triplicates. Following treatment, ^14CO2 release from these cells was measured and plotted. *p<0.05, **p<0.01, ***p<0.001 as determined by two tailed unpaired student's t-test.\nD. siAdipoR1 eliminates ULMA induction of fatty acid oxidation. C2C12 myotubes were transfected with nonsilencing siC or siAdipoR1. 72 h after transfection, cells were treated for 24 h with 10 nM ULMA and fatty acid oxidation experiments were performed. Data is mean±SEM of three independent experiments performed in triplicates. **p<0.01 as determined by two tailed unpaired student's t-test.\nAdiponectin is known to enhance glucose uptake and fatty acid oxidation in skeletal muscle and myotubes (T. Kadowaki, T. Yamauchi, N. Kubota, K. Hara, K. Ueki, K. Tobe. J Clin Invest. 116(7): 1784-1792. 2006; T. Yamauchi, J. Kamon, Y. Ito, A. Tsuchida, T. Yokomizok, S. Kita, T. Sugiyama, M. Miyagishi, K. Hara, M. Tsunodaq, K. Murakamiq, T. Ohteki, S. Uchida, S. Takekawa, H. Waki, N. H. Tsuno, Y. Shibata, Y. Terauchi, P. Froguel, K. Tobe, S. Koyasu, K. Taira, T. Kitamura, T. Shimizuk, R. Nagai, T. Kadowaki. Nature. 423(6941):762-769. 2003). […] Subsequently, the cells were lysed in 100 μl 0.5N NaOH and 5 μl lysate was used for protein concentration determination, and rest of the lysate was used to measure cellular radioactivity in a beta-counter (Beckman Coulter). […] Radioactivity that had become adsorbed onto the filter discs was then quantified by liquid scintillation counting in a beta-counter (Beckman Coulter). The cells were lysed with 200 μl 0.5N NaOH and 5 μl of the lysate was used for protein estimation using Bradford assay and the radioactivity was normalized with the protein content."}, "[2]": {"tested_on": "AdipoRs", "test": "Competitive radio-ligand binding assay with 125I-adiponectin on C2C12 myotubes", "parameters": "species or system mouse", "conditions": "10^-11 M to 10^-6 M unlabeled ULMA, 12 hours, 4° C.", "description": "C. ULMA competes with ^125I-globular adiponectin (gAd) for binding to AdipoRs. C2C12 myotubes in 12 well plates were incubated with 2 μl of 10 uCi/ml ^125I-adiponectin (this amount gives 50% binding to the cells) in ice-cold PBS and 0.1% bovine serum albumin for 12 h in presence or absence of different doses of unlabeled ULMA (10^−11M, 10^−10 M, 10^−9 M, 10^−8 M, 10^−7M, 10^−6M) at 4° C. The cells were then washed 20 times in PBS and then lysed. 5 μl of the lysate was used for protein estimation using standard Bradford assay and rest of the lysate was used for measuring radioactivity in a gamma-counter (Cole Palmer). The count per minute was normalized with protein concentration and plotted as % binding compared to wells treated with vehicle only (0.1% vol/vol DMSO). Data represents mean±SEM from three experiments performed in triplicates.\nCompetitive Radio-Ligand Binding Assay\nFurther validation of AdipoR-ULMA interaction was obtained using a competitive radio-ligand binding assay. […] 5 μl of the lysate was used for protein estimation using standard Bradford assay and rest of the lysate was used for measuring radioactivity in a gamma-counter (Cole Palmer). […]"}},
  "data": [
    {"smiles": "O=C1c2c(cc(O)c([C@@H]3O[C@H](CO)[C@@H](O)[C@H](O)[C@H]3O)c2O)O[C@@H](c2ccc(O)c(O)c2)[C@@H]1O", "note": "[ULMA, (2S,3S)-(+)-3′,4′,5,7-tetrahydroxydihydroflavonol-6-C-β-D-glucopyranoside]", "values": [
      {"measurement": "time of treatment at which induction of fatty acid oxidation was visible", "setting": "[1]", "value": "≤ 2", "unit": "h"},
      {"measurement": "fatty acid oxidation", "setting": "[1]; 2 h, 24 h or 48 h, increased with time", "value": "robustly induced"},
      {"measurement": "ULMA-induced fatty acid oxidation with siAdipoR1 (not siC)", "setting": "[1]; 24 h, 72 h after siRNA transfection", "value": "completely eliminated"},
      {"measurement": "displacement of 125I-adiponectin binding by cold ULMA", "setting": "[2]", "value": "dose-dependently replaced 125I-adiponectin binding"}
    ]}
  ]
}
